According to PMC2693498 (Retrovirology, 2009):
Several values for one entry are separate records, joined by “and”; a condition that tells them apart may be missing. Equal entries are not always repeated. Where two headings read alike, the source gives them in different places.

Legend:
HIV-1 strain xxLAI = assay: microbe, parasite or virus in culture; type: cell-based; conditions: Human immunodeficiency virus 1, MT2
Method: The infected cells were incubated for 5 days at 37°C in 5% CO2. Antiviral activity was measured by determining the HIV-1 cytopathic effect by using the vital dye XTT (2,3-bis(2-methoxy-4-nitro-5-sulphophenyl)-2H-tetrazolium-5-carboxanilide) based colorimetric assay [61].
For the median-effect analysis, the compounds were combined at a 1:1 ratio based on their EC50. Six to eight concentrations of each single drug, two-drug combinations, and three-drug combinations were assayed in at least three independent experiments with quadruplicate wells for each experiment. The triple drug combination of TFV+FTC+EFV was studied by the median-effect analysis only. […] For the MacSynergy analysis, combinations of TFV+FTC, TFV+EFV, and FTC+EFV were tested in a checkerboard fashion in 96-well plates with the starting concentration for each compound fixed at three-fold to four-fold above the EC50 value. For the isobologram analysis, combinations of TFV+FTC, TFV+EFV, and FTC+EFV were tested in a checkerboard fashion with the starting concentration for each compound fixed at three-fold to four-fold above the EC50 value.
The degrees of synergy and antagonism were determined using CalcuSyn software (version 2.0, Biosoft, Cambridge, UK) which is based on median-effect principle by Chou and Talalay [62]. […] The IC50 value is calculated from the y-intercept (-m * log IC50), where m is the slope of the curve. […]
The MacSynergy II program (version 1.0, Ann Arbor, MI) calculates a theoretical additive value for each drug combination based on the values generated by the drugs alone using the Bliss Independence model [42]. […] A synergy volume is calculated by adding all of the positive values for each drug combination. […]
In our cell culture study, the score of synergy/antagonism was calculated from a set of 5 replicate parallel measurements and more than 3 sets of such experiments were conducted to test the reproducibility of the results. […]
Fractional inhibitory concentrations are calculated by dividing the EC50 of drug 1 with a fixed overlay of drug 2 by the EC50 of drug 1 alone (the x-coordinate).

[1] = in vivo; cited from earlier work
HIV-1 RT = target: T1, HIV-1 RT (Human immunodeficiency virus type 1 group M subtype B, UniProt P04585); assay: HIV-1 RT enzymatic (combination) inhibition assay, steady state, activated calf thymus DNA; type: biochemical
T1 construct: Wild-type HIV-1 RT p66/p51 heterodimers; 6-His (N); made in house

[2] = human, in vivo; cited from earlier work
[3] = target: T2, HIV-1 RT and ddNTP-terminated DNA primer/template (Human immunodeficiency virus type 1 group M subtype B, UniProt P04585); assay: DEC formation assay (gel shift); type: binding
T2 construct: Wild-type HIV-1 RT p66/p51 heterodimers; 6-His (N); made in house
Text: The dead-end complex (DEC) refers to a salt-stable complex formed by HIV-1 RT/ddNMP-terminated DNA primer-template bound to the next dNTP (or ddNTP) that is resistant to being competed apart with excess template. When DEC forms, HIV-1 RT and the DNA primer-template are "trapped" in a state where the forward reaction (polymerization), backward reaction (terminal ddNMP-excision), or enzyme-DNA dissociation cannot occur. We investigated the DEC formation using TFV-terminated DNA/RT/FTC-TP and FTC-MP-terminated DNA/RT/TFV-DP to test the hypothesis that the incoming NRTI might act as the next nucleotide to the chain-terminated primer and form a DEC, thus stabilizing the pre-existing chain-termination. […] For these studies, formation of DEC was determined by three kinetic constants including the dissociation constant (Kd), the maximum percentage of DNA primer-template forming a tight binding RT-DNA complex (Bmax), and the ratio of Bmax/Kd which reflects the efficiency of DEC formation. Furthermore, two sets of DNA primer/templates ([…] and D26/D50) were used to address whether the observation was sequence-dependent.
DNA primers D19, D25, and D26 were 5'-end labeled with T4 polynucleotide kinase (New England Biolabs, Ipswich, MA) and [γ-^32P]ATP as previously described. […] The annealed primer/templates were analyzed by non-denaturing polyacrylamide gel (4–20% TBE) electrophoresis to ensure that the proper annealing had taken place.
The ability of HIV-1 RT to form a stable complex with NRTI-terminated primer/template in the presence of dNTP, ddNTP or NNRTI was assessed as previously described with modification. Two sets of primer/templates were tested using D19/D36A (D19/D36C) and D25/D50 (D26/D50). Labeled primer/template was chain-terminated by incubating a mixture containing 50 mM Tris-HCl (pH 7.8), 60 mM KCl, 5 mM MgCl2, 5 mM DTT, 300 μg/mL bovine serum albumin, 4.2 (v/v) % glycerol, 5 nM [5'-^32P]-labeled primer/template, 0.5 μM of ddATP or TFV-DP (for D19/D36A or D25/D50) or 0.5 μM of ddCTP or FTC-TP (for D19/D36C or D26/D50), and 200 nM HIV-1 RT for 5 min at 37°C and then placed on ice. […] Free dNTP, ddNTP, or EFV was added into the mixture and the mixture was incubated for 15 min at 25°C. At the end of the incubation, the mixture was placed on ice and mixed with 100 mM KCl and 1 A260 unit/mL (for D19/D36A and D19/D36C) or 5 A260 unit/mL (for D25/D50 and D26/D50) poly(rA).poly(dT)12–18. […] The gel was exposed to a storage phosphor screen and DEC formation was quantified using GE Storm 820 PhosphorImager and ImageQuant TL software (GE Healthcare, Piscataway, NJ).
The DEC formation was analyzed by plotting the fraction of the primer/template detected as a function of dNTP, ddNTP, or EFV concentration. […] Data were fitted by nonlinear regression to simple ligand binding equation: y = (Bmax × [ligand])/(Kd + [ligand]) using SigmaPlot 9.0 (Systat Software, Inc., San Jose, CA), where the ligand is the free dNTP, ddNTP, or EFV concentration, and y corresponds to the % of primer/template in DEC complex. The kinetic constants Kd represents the apparent dissociation constant of a ligand and Bmax is the maximum % of DEC complex formation.

[4] = target: T2, HIV-1 RT and ddNTP-terminated DNA primer/template; parameters: method as in PMID 9153415, PMID 17517852; conditions: TFV-terminated DNA+RT ref 51,55; read-out: Kd, reported values for DEC of TFV-terminated DNA+RT+dCTP; cited from earlier work
[5] = [α-32P]-dATP incorporation as marker
[6] = [α-32P]-dCTP incorporation as marker
[7] = TFV-terminated DNA 26/50-mer + HIV-1 RT, example experiment of Fig. 5
[8] = TFV-terminated DNA 26/50-mer + HIV-1 RT, example experiment of Fig. 5, read-out: Kd (curve fit of Fig. 5)
[9] = ligand added to TFV-terminated DNA D20/D36 + HIV-1 RT
[10] = ligand added to TFV-terminated DNA D20/D36 + HIV-1 RT, read-out: Kd
[11] = ligand added to TFV-terminated DNA D26/D50 + HIV-1 RT
[12] = ligand added to ddAMP-terminated DNA D20/D36 + HIV-1 RT
[13] = ligand added to ddAMP-terminated DNA D20/D36 + HIV-1 RT, read-out: Kd
[14] = ligand added to ddAMP-terminated DNA D26/D50 + HIV-1 RT
[15] = ligand added to ddCMP-terminated DNA D20/D36 + HIV-1 RT
[16] = ligand added to ddCMP-terminated DNA D27/D50 + HIV-1 RT

O=C1Nc2ccc(Cl)cc2[C@@](C#CC2CC2)(C(F)(F)F)O1 [EFV, efavirenz]
EC50 (HIV-1 strain xxLAI): 0.0056 µM
steady-state plasma EFV concentration [1]: 5 µM

Nc1nc(=O)n([C@@H]2CS[C@H](CO)O2)cc1F [FTC, emtricitabine]
EC50 (HIV-1 strain xxLAI): 1.3 µM

Nc1nc(=O)n([C@@H]2CS[C@H](COP(=O)(O)OP(=O)(O)OP(=O)(O)O)O2)cc1F [FTC-TP, FTC triphosphate]
IC50 (HIV-1 RT; [5]): 5 ± 3.2 µM
IC50 (HIV-1 RT; [6]): 2.4 ± 0.8 µM
concentration in patients' peripheral blood mononuclear cells (PBMC) [2]: 5000 nM
Bmax (curve fit of Fig. 5) [3, 7]: 50.4 ± 1.1%
Kd [3, 8]: 52.6 ± 3.4 µM
fold more efficient DEC formation than dCTP ([3]; TFV-terminated DNA+RT, two sequence contexts: equal to dCTP in one, this fold in the other): 3.9 fold and 4 fold
fold less efficient DEC formation than with dCTP ([3]; ddAMP-terminated DNA+RT): 10 fold
Bmax [3, 9]: 17.7 ± 3.9%
Kd [3, 10]: 250 ± 11 µM
Bmax [3, 11]: 50.0 ± 5.0%
Bmax [3, 12]: 28.1 ± 4.7%
Kd [3, 13]: 171 ± 28 µM
Bmax [3, 14]: 60.2 ± 7.2%

C[C@H](Cn1cnc2c(N)ncnc21)OCP(=O)(O)O [TFV, tenofovir]
EC50 (HIV-1 strain xxLAI): 13 µM

C[C@@H](Cn1cnc2c(N)ncnc21)OCP(=O)(O)OP(=O)(O)OP(=O)(O)O [TFV-DP, TFV diphosphate]
IC50 (HIV-1 RT; [5]): 0.53 ± 0.08 µM
IC50 (HIV-1 RT; [6]): 0.82 ± 0.23 µM
concentration in patients' peripheral blood mononuclear cells (PBMC) [2]: 500 nM
Bmax [3, 15]: 15.3 ± 2.7%
Bmax [3, 16]: 55 ± 2%

Nc1ncnc2c1ncn2[C@H]1C[C@H](O)[C@@H](COP(=O)(O)OP(=O)(O)OP(=O)(O)O)O1 [dATP]
fold more efficient DEC formation than TFV-DP ([3]; ddCMP-terminated DNAs): 24- to 65 fold
Bmax ([3]; ligand added to FTC-MP-terminated DNA D27/D50 + HIV-1 RT, ND = No DEC formation detected at 2 mM): 45 ± 14%
Kd ([3]; ligand added to FTC-MP-terminated DNA D27/D50 + HIV-1 RT, ND = No DEC formation detected at 2 mM, read-out: Kd): 862 ± 229 µM
Bmax [3, 15]: 38.0 ± 4.4%
Bmax [3, 16]: 60 ± 3%

Nc1ccn([C@H]2C[C@H](O)[C@@H](COP(=O)(O)OP(=O)(O)OP(=O)(O)O)O2)c(=O)n1 [dCTP]
Kd [4]: 1 to 5 µM
Bmax (curve fit of Fig. 5) [3, 7]: 49.2 ± 2.7%
Kd [3, 8]: 185 ± 28 µM
Bmax [3, 9]: 18.5 ± 6.7%
Kd [3, 10]: 232 ± 12 µM
Bmax [3, 11]: 50.0 ± 5.5%
Bmax [3, 12]: 34.2 ± 4.6%
Kd [3, 13]: 21.5 ± 9.8 µM
Bmax [3, 14]: 55.8 ± 3.4%
